Values joined by “and” are separate entries in the source; they are usually repeats but may differ in a detail not shown here. Equal entries are not always repeated.
Experiments:
[1] = target: AMP-activated protein kinase, AMPK; experiment: AMP-dependent Kinase enzyme assay. An in vitro enzyme assay that detects ADP turnover that is directly proportional to AMPK activity. This uses naive AMPK that is activated during the assay with MK-8722; assay type: functional, Homo sapiens
Histidine--tRNA ligase [2] = target: T1, Histidine--tRNA ligase (Leishmania infantum, UniProt A4I591); experiment: Leishmania infantum Histidine tRNA synthetase (LdHisRS); assay type: functional
T1 sequence (A4I591 whole entry): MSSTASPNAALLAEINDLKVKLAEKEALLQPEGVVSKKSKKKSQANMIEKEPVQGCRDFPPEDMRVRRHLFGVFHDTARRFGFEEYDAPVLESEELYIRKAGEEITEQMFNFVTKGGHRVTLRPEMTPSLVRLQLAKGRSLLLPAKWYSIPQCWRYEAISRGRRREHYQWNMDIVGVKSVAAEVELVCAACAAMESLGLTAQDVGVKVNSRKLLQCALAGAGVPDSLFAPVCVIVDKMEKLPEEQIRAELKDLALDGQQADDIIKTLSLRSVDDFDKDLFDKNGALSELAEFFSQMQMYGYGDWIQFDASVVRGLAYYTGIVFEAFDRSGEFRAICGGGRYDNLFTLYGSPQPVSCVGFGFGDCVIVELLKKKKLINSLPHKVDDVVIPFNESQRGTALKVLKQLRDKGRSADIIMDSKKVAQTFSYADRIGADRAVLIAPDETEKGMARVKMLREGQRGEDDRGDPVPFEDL

[3] = target: Polyketide synthase Pks13 (Mycobacterium tuberculosis (strain ATCC 25618 / H37Rv), UniProt I6X8D2); experiment: Mycobacterium tuberculosis Polyketide synthase 13 Thioesterase (PKS13); assay type: functional
Histidine--tRNA ligase [4] = target: T2, Histidine--tRNA ligase (Trypanosoma cruzi (strain CL Brener), UniProt Q4DA54); experiment: Trypanosoma cruzi histidyl tRNA synthetase (Tc-HisRS); assay type: functional
T2 sequence (Q4DA54 whole entry): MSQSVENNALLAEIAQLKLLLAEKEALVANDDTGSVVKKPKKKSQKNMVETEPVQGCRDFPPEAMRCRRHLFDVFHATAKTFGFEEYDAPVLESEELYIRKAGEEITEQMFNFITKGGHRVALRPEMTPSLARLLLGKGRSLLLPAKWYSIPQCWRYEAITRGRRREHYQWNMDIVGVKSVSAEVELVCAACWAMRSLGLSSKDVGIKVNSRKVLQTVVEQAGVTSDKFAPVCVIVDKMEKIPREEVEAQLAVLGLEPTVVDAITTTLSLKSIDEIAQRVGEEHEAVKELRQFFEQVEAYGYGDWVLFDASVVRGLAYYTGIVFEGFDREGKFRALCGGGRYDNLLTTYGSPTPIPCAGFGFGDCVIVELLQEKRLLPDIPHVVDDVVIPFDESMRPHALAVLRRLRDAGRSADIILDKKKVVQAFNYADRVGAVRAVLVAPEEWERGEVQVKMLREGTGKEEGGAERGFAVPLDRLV

Lysine--tRNA ligase = Lysine--tRNA ligase (Plasmodium falciparum (isolate 3D7), UniProt Q8IDJ8); experiment: Pf-KRS-1 (Lysyl-RNA Synthetase-1, KRS-1, cytosolic KRS) from Plasmodium falciparum. Inhibitor assay, 384 well plate, luminescence read.; assay type: functional
Schistosoma mansoni = experiment: High throughput screening of compounds against Schistosoma mansoni motility; assay type: functional; set-up: dose or concentration left out as unconfirmed
ClpP1P2 = ClpP1P2 (Mycobacterium tuberculosis (strain ATCC 25618 / H37Rv), UniProt P9WPC3+P9WPC5); experiment: in vitro assay to detect presence of AMC directly proportional to the activity of ClpP1P2. GHDDI collaboration.; assay type: functional
[5] = target: T3, Coenzyme A biosynthesis bifunctional protein CoaBC (Mycobacterium tuberculosis (strain ATCC 25618 / H37Rv), UniProt P9WNZ1); experiment: Biomol Green assay for MtCoaBC inhibitor, OD650 read; assay type: functional
T3 sequence (P9WNZ1 whole entry): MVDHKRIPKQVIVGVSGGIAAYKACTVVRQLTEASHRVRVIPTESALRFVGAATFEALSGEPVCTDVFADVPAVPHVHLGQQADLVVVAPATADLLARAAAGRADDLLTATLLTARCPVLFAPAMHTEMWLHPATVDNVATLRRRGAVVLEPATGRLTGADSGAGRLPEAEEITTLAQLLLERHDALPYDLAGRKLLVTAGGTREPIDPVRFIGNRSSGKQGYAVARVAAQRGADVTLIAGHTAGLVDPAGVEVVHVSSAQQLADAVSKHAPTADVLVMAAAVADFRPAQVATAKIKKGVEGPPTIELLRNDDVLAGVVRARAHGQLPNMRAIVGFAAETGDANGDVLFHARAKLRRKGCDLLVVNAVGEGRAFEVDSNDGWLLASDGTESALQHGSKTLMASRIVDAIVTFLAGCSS

Plasmodium falciparum = experiment: Calibr Malaria Delayed Death Assay SOP; assay type: functional, organism-based; settings: for IC50: Plasmodium falciparum
[6] = target: T4, Ubiquitin-activating enzyme e1, putative (Leishmania donovani (strain BPK282A1), UniProt E9BSI1); experiment: Leishmania donovani Ubiquitin Activating Enzyme (LdE1); assay type: functional
T4 sequence (E9BSI1 whole entry): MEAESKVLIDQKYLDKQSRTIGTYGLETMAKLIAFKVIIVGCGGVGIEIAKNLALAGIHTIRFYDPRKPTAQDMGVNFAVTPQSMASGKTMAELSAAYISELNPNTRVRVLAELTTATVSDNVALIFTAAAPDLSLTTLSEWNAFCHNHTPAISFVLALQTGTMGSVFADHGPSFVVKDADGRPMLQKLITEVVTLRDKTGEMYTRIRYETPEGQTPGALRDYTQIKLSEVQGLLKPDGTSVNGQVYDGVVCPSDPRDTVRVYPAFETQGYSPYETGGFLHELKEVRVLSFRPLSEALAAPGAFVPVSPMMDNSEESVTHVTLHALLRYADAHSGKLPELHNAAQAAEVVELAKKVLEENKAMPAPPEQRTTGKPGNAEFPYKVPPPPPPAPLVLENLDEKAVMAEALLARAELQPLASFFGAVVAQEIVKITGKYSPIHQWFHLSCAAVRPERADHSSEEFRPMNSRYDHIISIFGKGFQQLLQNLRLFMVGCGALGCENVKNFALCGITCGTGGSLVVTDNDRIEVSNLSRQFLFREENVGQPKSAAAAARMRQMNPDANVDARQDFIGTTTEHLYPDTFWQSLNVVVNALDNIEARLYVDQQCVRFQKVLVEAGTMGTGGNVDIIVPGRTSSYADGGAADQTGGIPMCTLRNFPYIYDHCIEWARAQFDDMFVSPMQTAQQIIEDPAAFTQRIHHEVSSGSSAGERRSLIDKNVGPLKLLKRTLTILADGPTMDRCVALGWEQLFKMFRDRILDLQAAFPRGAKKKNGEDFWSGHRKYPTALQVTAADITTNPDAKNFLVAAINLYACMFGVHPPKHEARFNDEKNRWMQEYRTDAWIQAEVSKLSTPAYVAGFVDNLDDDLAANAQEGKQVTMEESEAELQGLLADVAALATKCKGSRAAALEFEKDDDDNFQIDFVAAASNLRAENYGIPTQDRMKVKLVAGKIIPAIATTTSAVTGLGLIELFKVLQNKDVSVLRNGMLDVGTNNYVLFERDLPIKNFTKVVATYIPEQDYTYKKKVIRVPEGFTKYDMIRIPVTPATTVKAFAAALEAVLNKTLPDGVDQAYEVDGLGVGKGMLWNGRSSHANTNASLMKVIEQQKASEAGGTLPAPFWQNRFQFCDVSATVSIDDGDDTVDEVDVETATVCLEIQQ

Leishmania donovani = experiment: Leishmania intramacrophage assay; assay type: functional, organism-based; settings: Leishmania donovani

Sequence of Polyketide synthase Pks13 (I6X8D2 whole entry): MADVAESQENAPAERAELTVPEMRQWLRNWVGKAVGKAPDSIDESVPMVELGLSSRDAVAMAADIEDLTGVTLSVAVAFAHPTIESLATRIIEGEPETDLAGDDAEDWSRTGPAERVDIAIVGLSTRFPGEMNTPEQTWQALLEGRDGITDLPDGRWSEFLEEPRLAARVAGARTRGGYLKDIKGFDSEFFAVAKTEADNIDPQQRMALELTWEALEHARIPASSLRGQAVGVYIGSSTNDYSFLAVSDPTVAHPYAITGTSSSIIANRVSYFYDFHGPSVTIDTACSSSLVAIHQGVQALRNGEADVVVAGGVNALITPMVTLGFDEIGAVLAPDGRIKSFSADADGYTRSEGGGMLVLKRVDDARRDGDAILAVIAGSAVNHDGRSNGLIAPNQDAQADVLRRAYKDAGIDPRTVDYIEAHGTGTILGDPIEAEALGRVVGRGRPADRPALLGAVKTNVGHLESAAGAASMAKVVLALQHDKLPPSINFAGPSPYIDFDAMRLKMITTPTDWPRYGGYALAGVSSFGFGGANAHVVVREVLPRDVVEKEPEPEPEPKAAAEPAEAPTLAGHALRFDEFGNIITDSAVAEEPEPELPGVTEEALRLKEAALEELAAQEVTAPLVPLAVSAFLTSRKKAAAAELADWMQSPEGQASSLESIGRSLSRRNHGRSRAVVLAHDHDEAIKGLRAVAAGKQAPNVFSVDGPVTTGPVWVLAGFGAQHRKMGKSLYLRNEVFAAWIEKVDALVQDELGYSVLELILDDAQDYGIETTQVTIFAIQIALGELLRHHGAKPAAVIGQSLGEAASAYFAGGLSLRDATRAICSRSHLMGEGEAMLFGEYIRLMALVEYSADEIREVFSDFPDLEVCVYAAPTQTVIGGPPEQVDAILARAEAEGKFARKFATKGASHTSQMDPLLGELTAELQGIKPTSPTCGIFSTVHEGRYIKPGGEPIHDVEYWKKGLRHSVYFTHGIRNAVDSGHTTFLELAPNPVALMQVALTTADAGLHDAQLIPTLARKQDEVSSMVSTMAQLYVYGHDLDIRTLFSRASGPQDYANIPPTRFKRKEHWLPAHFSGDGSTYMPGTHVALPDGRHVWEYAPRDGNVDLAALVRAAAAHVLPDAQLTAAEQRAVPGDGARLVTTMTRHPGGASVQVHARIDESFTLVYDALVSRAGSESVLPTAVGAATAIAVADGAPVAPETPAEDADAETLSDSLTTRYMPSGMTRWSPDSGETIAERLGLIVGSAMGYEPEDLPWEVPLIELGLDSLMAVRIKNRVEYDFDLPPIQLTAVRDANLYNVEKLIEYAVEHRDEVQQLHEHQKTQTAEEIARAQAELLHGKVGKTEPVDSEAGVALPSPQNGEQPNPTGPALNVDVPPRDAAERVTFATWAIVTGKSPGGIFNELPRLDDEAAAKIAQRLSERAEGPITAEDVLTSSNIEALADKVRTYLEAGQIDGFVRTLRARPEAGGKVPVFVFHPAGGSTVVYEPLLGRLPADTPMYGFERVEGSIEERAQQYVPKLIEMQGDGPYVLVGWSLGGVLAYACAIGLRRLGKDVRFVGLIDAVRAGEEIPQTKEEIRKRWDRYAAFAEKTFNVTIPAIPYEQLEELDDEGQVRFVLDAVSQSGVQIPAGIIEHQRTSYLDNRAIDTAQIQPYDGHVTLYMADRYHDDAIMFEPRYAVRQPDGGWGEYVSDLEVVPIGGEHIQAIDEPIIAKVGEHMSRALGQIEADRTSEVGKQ
Sequence of ClpP1P2 (P9WPC5 whole entry): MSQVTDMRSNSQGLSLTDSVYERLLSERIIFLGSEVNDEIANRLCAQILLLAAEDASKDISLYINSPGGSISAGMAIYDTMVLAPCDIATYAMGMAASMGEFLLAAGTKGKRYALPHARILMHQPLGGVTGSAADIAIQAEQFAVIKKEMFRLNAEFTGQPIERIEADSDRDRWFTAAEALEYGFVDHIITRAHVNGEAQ
Sequence of ClpP1P2 (P9WPC3 whole entry): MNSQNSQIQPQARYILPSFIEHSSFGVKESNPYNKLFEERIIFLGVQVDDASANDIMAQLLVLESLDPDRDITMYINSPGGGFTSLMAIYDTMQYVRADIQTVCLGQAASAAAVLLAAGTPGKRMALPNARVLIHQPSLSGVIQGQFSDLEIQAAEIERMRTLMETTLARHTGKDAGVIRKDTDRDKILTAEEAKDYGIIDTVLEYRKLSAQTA
Sequence of Lysine--tRNA ligase (Q8IDJ8 whole entry): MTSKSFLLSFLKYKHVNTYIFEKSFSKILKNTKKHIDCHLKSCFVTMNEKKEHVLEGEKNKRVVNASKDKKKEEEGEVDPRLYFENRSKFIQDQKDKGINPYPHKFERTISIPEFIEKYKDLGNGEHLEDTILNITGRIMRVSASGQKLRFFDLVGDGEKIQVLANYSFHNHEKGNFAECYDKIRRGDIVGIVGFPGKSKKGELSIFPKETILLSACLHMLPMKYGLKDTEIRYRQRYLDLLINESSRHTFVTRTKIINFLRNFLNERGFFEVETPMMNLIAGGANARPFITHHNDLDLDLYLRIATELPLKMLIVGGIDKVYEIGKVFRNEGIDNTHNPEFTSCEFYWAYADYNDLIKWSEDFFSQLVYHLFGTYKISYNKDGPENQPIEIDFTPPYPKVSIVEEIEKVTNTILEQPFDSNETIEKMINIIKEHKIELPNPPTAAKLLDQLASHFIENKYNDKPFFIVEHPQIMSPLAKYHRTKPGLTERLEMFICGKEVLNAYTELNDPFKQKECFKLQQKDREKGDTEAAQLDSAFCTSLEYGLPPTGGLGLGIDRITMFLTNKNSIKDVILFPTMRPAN

| Compound | pIC50 [1] | other results |
| --- | --- | --- |
| c1cc(-c2ccc3c(c2)CCC32CCNCC2)ccn1 | < 4 | IC50 (Histidine--tRNA ligase [2]): > 100 µM |
| CC1(C)Cc2ccccc2-c2nc(NCCO)[nH]c(=O)c21 | 4.722 and 4.636 and 4.548 and 4.621 | IC50 [3]: 16.8 µM and 19.4 µM |
| O=C(NCc1ccccc1)c1nnc2ccc(N3CCOCC3)cc2n1 | < 4 | IC50 [3]: 16 µM and 24.5 µM |
| CC(C)C1CCCN1C(=O)Nc1ccc(=O)n(C)c1 (stereo unspecified) | < 4 | IC50 (Histidine--tRNA ligase [2]): 1.01 µM and 1.02 µM and 2.81 µM and 2.75 µM; IC50 (Histidine--tRNA ligase [4]): 19 µM and 22.3 µM; IC50 (Lysine--tRNA ligase): > 50.1 µM |
| Cc1nn(C)c(N2CCOCC2)c1CNC(C)c1ccco1 (stereo unspecified) | < 4 | Percent Effect (Schistosoma mansoni): -29.3% |
| CC(CN1CCN(C)CC1)NC(=O)c1cc(Cl)c2c(c1)OCO2 (stereo unspecified) | < 4 | Percent Effect (Schistosoma mansoni): -52.41% |
| CCc1nnc2n1CCN(C(=O)c1ccc3nc(C)c(C)nc3c1)C2 | < 4 | Percent Effect (Schistosoma mansoni): -15.27% |
| CNc1nc(C(=O)N2CCCC(COc3ccc(F)cc3)C2)cs1 (stereo unspecified) | < 4 |  |
| NCC1Cc2cccc(-c3ccc(O)c(F)c3)c2O1 (stereo unspecified) | 4.898 and 4.913 |  |
| CN1CCC(c2n[nH]c(=O)n2-c2cccc(Cl)c2)CC1 | < 4 |  |
| COc1ccc(CC2(CO)CCN(c3cc(C#N)ccn3)CC2)cc1 | < 4 | IC50 (ClpP1P2): > 100 µM |
| O=C1CC2(CCN(Cc3ccc(-c4ccccc4)s3)C2)C(=O)N1 (stereo unspecified) | < 4 |  |
| Cc1nc(N)nc(C)c1CC(=O)N1CCC2(CC1)OCCCC2O (stereo unspecified) | < 4 | IC50 [5]: > 30.2 µM |
| Cn1ncc2c(NC3CCC3)nc(-c3ccncc3)nc21 | < 4 |  |
| Cc1nc(N2CCN(C)CC2)ncc1C(=O)N1CCC(O)(CO)CC1 | < 4 |  |
| CCc1cc(NCCc2ccc(O)cc2)n2nccc2n1 | 4.438 and 4.726 | Percent Effect (Schistosoma mansoni): -42.86% |
| COc1ccccc1OCc1cc(C(=O)N2CC(O)C2)n[nH]1 | < 4 | Percent Effect (Schistosoma mansoni): -18.55% |
| CC(C)c1cc(NC(=O)c2ccc([S+]([O-])C(C)C)cc2)[nH]n1 (stereo unspecified) | 5.533 and 5.17 |  |
| CC(C)c1cc(NC(=O)c2ccncc2)[nH]n1 | 4.474 and 4.692 |  |
| CC(C)c1cc(NC(=O)c2cccnc2)[nH]n1 | 4.473 and 4.751 |  |
| Cc1ccnc(NC(=O)c2[nH]nc(C(C)C)c2Br)c1 | < 4 | IC50 [5]: > 30.2 µM; pIC50 (Plasmodium falciparum): 6.433; IC50 (Plasmodium falciparum): 0.23 µM |

| Compound | pIC50 [1] | other results |
| --- | --- | --- |
| CC(C)c1n[nH]c(C(=O)NC(C)c2ccncc2)c1Br (stereo unspecified) | < 4 | IC50 [5]: > 30.2 µM |
| CC(C)c1n[nH]c(C(=O)Nc2ccccn2)c1Br | < 4 | pIC50 (Plasmodium falciparum): 6.515; IC50 (Plasmodium falciparum): 0.24 µM |
| Cc1cccc(NC(=O)c2[nH]nc(C(C)C)c2Br)n1 | < 4 | IC50 [3]: > 100 µM |
| CCOc1cc(C)nc(N2CCN(C(=O)CC)CC2)n1 | < 4 |  |
| Cc1cnn(CC2CN(Cc3nnc(-c4occc4C)o3)CCO2)c1 (stereo unspecified) | < 4 |  |
| Cc1cnn(CC2CN(Cc3nnc(C4CC4)o3)CCO2)c1 (stereo unspecified) | < 4 |  |
| CNC(=O)c1cccc(NC(=O)Cn2nc(-c3cccs3)oc2=O)c1 | < 4 |  |
| O=C(CN1CC(n2cccn2)C1)NCCc1c[nH]c2ccccc12 | < 4 |  |
| CC1COCCN1Cc1nc(-c2cccs2)no1 (stereo unspecified) | < 4 |  |
| Cc1cccc(-c2nc(CN3CCc4cnc(C)nc4C3)no2)c1 | < 4 |  |
| Cc1nc(C)n(CC2CCCN(c3ncnc4[nH]ccc34)C2)n1 (stereo unspecified) | 4.827 [middle of 4 runs] |  |
| COc1cc(/C=C/c2ncc(C(=O)O)s2)cc(Cl)c1O | 4.507 and 4.461 | IC50 [5]: > 50.1 µM and > 30.2 µM (2×) and 45.3 µM; IC50 [3]: 23.7 µM and 18.7 µM |
| CCc1cc(C)c(C(=O)N2CCCC2CC(=O)c2cnn(C)c2)o1 (stereo unspecified) | < 4 |  |
| CCOc1cccc2c1OCC(C(=O)NS(=O)(=O)c1ccc(Cl)cc1)=C2 | < 4 |  |
| CC(C)OCCCNC(=O)c1ccc(-c2ccco2)[nH]c1=O | < 4 |  |
| CCOCC(O)CN1CCN(C(=O)C2CC2)CC1 (stereo unspecified) | < 4 |  |
| CC(C)c1nc2n(n1)CC(NCc1nnc(C(C)C)o1)CC2 (stereo unspecified) | < 4 | IC50 [6]: > 100 µM |
| COc1cc(C(=O)N2CCCC(CNS(C)(=O)=O)C2)cc(OC)c1C (stereo unspecified) | < 4 |  |
| O=C(NCCNc1ccc(C(F)(F)F)cn1)c1cncc(Br)c1 | 4.385 and < 4 |  |
| COc1cc(CNC2CCCc3c2cnn3C)cc(OC)c1.Cl (stereo unspecified) | < 4 |  |
| FC1(F)CCN(Cc2ccccn2)CC12CCN(c1cccnc1)C2.O=C(O)C(F)(F)F.O=C(O)C(F)(F)F.O=C(O)C(F)(F)F (stereo unspecified) | < 4 | IC50 (Leishmania donovani): > 50.1 µM |
